Measurements reported in patent publication US10975352B2, “Methods of enhancing cell survival of stem cells” (The Scripps Research Institute, priority 2008, dated 2021).

Tests used:
[1] = test system: epithelial to mesenchymal transition/EMT; assay: Induction of MET / inhibition of EMT; format: cell-based
hESCs = assay: ALP positive colony formation / low-density survival assay of dissociated hESCs on Matrigel; format: cell-based, human; details: adherent culture (e.g. Matrigel-coated plate)
Experimental: Human ESC lines H1, HUES7 and HUES9 were cultured on irradiated MEF feeder cells in DMEM-F12 supplemented with 2 mM L-glutamine, lx nonessential amino acids, 20% serum replacement (Invitrogen) and 10 ng/ml basic Fibroblast growth factor (Invitrogen). Chemically-defined and feeder-free hESC culture was described previously (Yao, S. et al., Proc Natl Acad Sci USA 103 (18):6907-6912 (2006)). Briefly, hESCs were grown on Matrigel-coated tissue culture plates in N2B27-CDM (DMEM-F12 supplemented with 1×N2 supplements, lx B27 supplements, 2 mM L-glutamine, 0.11 mM 2-mercaptoethanol, lx nonessential amino acids, and 0.5 mg/ml BSA (fraction V)) and 20 ng/ml bFGF. Human ESCs were passaged every 5-6 days with 0.05% trypsin.
For clonal survival assays, single hESCs were diluted to clonal density and plated onto 96-well Matrigel-coated plate. For low-density survival assays, 500 cells were plated onto 96-well Matrigel-coated plate. To visualize hESC colonies, cultures were fixed in 4% paraformaldehyde in PBS for 5 min, washed once in PBS, then stained for alkaline phosphatase activity as described in manufacturer's instructions. ALP positive colonies were counted on an inverted microscope.
ALP detection kit and integrin antibodies were from Chemicon. AG825 (Erb2 inhibitor), AG1478 (EGFR inhibitor), PPP (IGFR1 inhibitor) were purchased from Calbiochem. Antibodies raised against the intracytoplasmic tail of E-cadherins (Transduction Laboratories, Lexington, Ky.) were used for immunoprecipitation. The antibody TS2/16 was from Pierce. Antibodies to the extracellular domain of E-cadherin molecule were from Zymed (Carlsbad). Antibodies against extracellular signal-regulated kinase/MAPK, EGFR1, ERB2, GADPH and phosphorylated form of AKT were from Cell Signaling. Mouse monoclonal anti-phosphotyrosine (4G-10 clone) was from Upstate Biotechnology. Ptn and Tzv were added to culture medium at 2 μM. […]

[2] = test system: E-cadherins, EGFR1 and ERB2; assay: Immunoprecipitation of E-cadherins with EGFR1 and Erb2; format: cell-based, human
Text: Interplay between physical/structural environment and growth factor plays a very important role in cell fate regulation (Comoglio, P. M., Boccaccio, C., & Trusolino, L., Curr Opin Cell Biol 15 (5):565-571 (2003)). To examine whether growth factors are involved in integrin-mediated hESC survival, we treated dissociated hESCs with Tzv or Ptn together with individual highly specific growth factor receptor inhibitors. […] Similarly inhibition of FGFR, IGFR, EGFR1 or Erb2 also greatly abolished Tzv-induced hESC survival in suspension culture.
ALP detection kit and integrin antibodies were from Chemicon. AG825 (Erb2 inhibitor), AG1478 (EGFR inhibitor), PPP (IGFR1 inhibitor) were purchased from Calbiochem. Antibodies raised against the intracytoplasmic tail of E-cadherins (Transduction Laboratories, Lexington, Ky.) were used for immunoprecipitation. The antibody TS2/16 was from Pierce. Antibodies to the extracellular domain of E-cadherin molecule were from Zymed (Carlsbad). Antibodies against extracellular signal-regulated kinase/MAPK, EGFR1, ERB2, GADPH and phosphorylated form of AKT were from Cell Signaling. Mouse monoclonal anti-phosphotyrosine (4G-10 clone) was from Upstate Biotechnology. Ptn and Tzv were added to culture medium at 2 μM.

`O=C(NCc1ccccc1)c1csc(Nc2ccncn2)n1` [Tzv, N-benzyl-2-(pyrimidin-4-ylamino)thiazole-4-carboxamide] was tested, and the “MET induction and EMT inhibition” value [1] was “can induce MET (the reverse of EMT) and inhibit EMT”, the “survival of dissociated hESCs in adherent culture” value (hESCs) was “greatly improved survival” and the “binding of E-cadherins to EGFR1 and ERB2” value [2] was “induced binding of E-cadherins to EGFR1 and ERB2”.
